Measurements as given in the NIST ThermoML archive (doi:10.1021/je101178u).
Values joined by “and” are separate entries in the source; they are usually repeats but may differ in a detail not shown here. Equal entries are not always repeated.

Conditions: Fluid (supercritical or subcritical phases); for mass density: Buoyancy - hydrostatic balance with magnetic suspension - one sinker; for viscosity: vibrating wire

CCC [propane]
Conditions	mass density	viscosity
273.15 K, 40.93 kPa	0.80164 kg/m3	0.00744 mPa·s
273.15 K, 51.05 kPa	1.002 kg/m3	0.007443 mPa·s
273.15 K, 100.76 kPa	1.999 kg/m3	0.007443 mPa·s
273.15 K, 149.62 kPa	3.0011 kg/m3	0.007435 mPa·s
273.15 K, 196.97 kPa	3.9945 kg/m3	0.007431 mPa·s
273.15 K, 243.87 kPa	5.0016 kg/m3	0.007424 mPa·s
273.15 K, 289.3 kPa	6.0007 kg/m3	0.007419 mPa·s
273.15 K, 333.56 kPa	6.9977 kg/m3	0.007415 mPa·s
273.15 K, 376.67 kPa	7.9933 kg/m3	0.00741 mPa·s
273.15 K, 420.03 kPa	9.0207 kg/m3	0.007406 mPa·s
273.15 K, 459.55 kPa	9.9815 kg/m3	0.007404 mPa·s
273.15 K, 459.58 kPa	9.9822 kg/m3	0.007403 mPa·s
298.15 K, 44.7 kPa	0.80087 kg/m3	0.008128 mPa·s
298.15 K, 55.55 kPa	0.99693 kg/m3	0.008133 mPa·s
298.15 K, 110.39 kPa	1.9989 kg/m3	0.00813 mPa·s
298.15 K, 164.09 kPa	2.9981 kg/m3	0.008127 mPa·s
298.15 K, 164.66 kPa	3.0089 kg/m3	0.008126 mPa·s
298.15 K, 217.05 kPa	4.0022 kg/m3	0.008127 mPa·s
298.15 K, 217.09 kPa	4.0029 kg/m3	0.008128 mPa·s
298.15 K, 268.78 kPa	5.0013 kg/m3	0.008125 mPa·s
298.15 K, 318.03 kPa	5.9708 kg/m3	0.008125 mPa·s
298.15 K, 369.4 kPa	7.0017 kg/m3	0.00813 mPa·s
298.15 K, 418.44 kPa	8.0059 kg/m3	0.008126 mPa·s
298.15 K, 464.73 kPa	8.9725 kg/m3	0.008128 mPa·s
298.15 K, 498.81 kPa	9.6967 kg/m3	0.008126 mPa·s
298.15 K, 513.59 kPa	10.014 kg/m3	0.008121 mPa·s
298.15 K, 559.93 kPa	11.023 kg/m3	0.008129 mPa·s
298.15 K, 600.75 kPa	11.93 kg/m3	0.008132 mPa·s
298.15 K, 604 kPa	12.003 kg/m3	0.008127 mPa·s
298.15 K, 646.36 kPa	12.965 kg/m3	0.008128 mPa·s and 0.00813 mPa·s
298.15 K, 691.04 kPa	14.002 kg/m3	0.008132 mPa·s
298.15 K, 692.19 kPa	14.029 kg/m3	0.008133 mPa·s
298.15 K, 783.49 kPa	16.228 kg/m3	0.008144 mPa·s
298.15 K, 849.03 kPa	17.879 kg/m3	0.00815 mPa·s
298.15 K, 875.16 kPa	18.556 kg/m3	0.008155 mPa·s
298.15 K, 878.68 kPa	18.648 kg/m3	0.008158 mPa·s
366.15 K, 68.97 kPa	1.0047 kg/m3	0.009907 mPa·s
366.15 K, 136.86 kPa	2.0051 kg/m3	0.009923 mPa·s
366.15 K, 270.35 kPa	4.0067 kg/m3	0.009941 mPa·s
366.15 K, 400.53 kPa	6.0046 kg/m3	0.009956 mPa·s
366.15 K, 527.04 kPa	7.9924 kg/m3	0.009974 mPa·s
366.15 K, 649.96 kPa	9.9702 kg/m3	0.009996 mPa·s
366.15 K, 772.49 kPa	11.99 kg/m3	0.01002 mPa·s
366.15 K, 897.82 kPa	14.109 kg/m3	0.01005 mPa·s
366.15 K, 1004.8 kPa	15.963 kg/m3	0.01007 mPa·s
366.15 K, 1119.8 kPa	18.006 kg/m3	0.0101 mPa·s
366.15 K, 1222.3 kPa	19.872 kg/m3	0.01013 mPa·s
366.15 K, 1738.7 kPa	30.044 kg/m3	0.01032 mPa·s
366.15 K, 2181.8 kPa	40.086 kg/m3	0.01055 mPa·s
366.15 K, 2559.1 kPa	50.015 kg/m3	0.01083 mPa·s
366.15 K, 2883 kPa	60.029 kg/m3	0.01114 mPa·s
366.15 K, 3154.4 kPa	70.033 kg/m3	0.01149 mPa·s
366.15 K, 3381.1 kPa	80.175 kg/m3	0.0119 mPa·s
366.15 K, 3559.5 kPa	90.05 kg/m3	0.01232 mPa·s
366.15 K, 3704.1 kPa	100.205 kg/m3	0.01282 mPa·s
366.15 K, 3704.9 kPa	100.267 kg/m3	0.01282 mPa·s
373.15 K, 70 kPa	1.0004 kg/m3	0.01008 mPa·s
373.15 K, 139.24 kPa	2.0008 kg/m3	0.0101 mPa·s
373.15 K, 275.58 kPa	4.0037 kg/m3	0.01012 mPa·s
373.15 K, 408.76 kPa	6.0045 kg/m3	0.01014 mPa·s
373.15 K, 538.6 kPa	7.9996 kg/m3	0.01017 mPa·s
373.15 K, 666.93 kPa	10.017 kg/m3	0.0102 mPa·s
373.15 K, 733.66 kPa	11.085 kg/m3	0.01021 mPa·s
373.15 K, 917.57 kPa	14.099 kg/m3	0.01026 mPa·s
373.15 K, 1023.3 kPa	15.881 kg/m3	0.01029 mPa·s
373.15 K, 1147.8 kPa	18.031 kg/m3	0.01033 mPa·s
373.15 K, 1248 kPa	19.801 kg/m3	0.01036 mPa·s
373.15 K, 1781.8 kPa	29.954 kg/m3	0.01058 mPa·s
373.15 K, 1781.9 kPa	29.957 kg/m3	0.01058 mPa·s
373.15 K, 2244.2 kPa	39.982 kg/m3	0.01083 mPa·s
373.15 K, 2244.5 kPa	39.99 kg/m3	0.01084 mPa·s
373.15 K, 2640.8 kPa	49.856 kg/m3	0.01113 mPa·s
373.15 K, 2640.9 kPa	49.858 kg/m3	0.01113 mPa·s
373.15 K, 2984.3 kPa	59.751 kg/m3	0.01146 mPa·s
373.15 K, 2984.4 kPa	59.753 kg/m3	0.01146 mPa·s
373.15 K, 3288.7 kPa	70.03 kg/m3	0.01186 mPa·s
373.15 K, 3289 kPa	70.041 kg/m3	0.01186 mPa·s
373.15 K, 3531.3 kPa	79.736 kg/m3	0.01227 mPa·s
373.15 K, 3531.6 kPa	79.746 kg/m3	0.01227 mPa·s
373.15 K, 3739.8 kPa	89.698 kg/m3	0.01273 mPa·s
373.15 K, 3740.2 kPa	89.72 kg/m3	0.01273 mPa·s
373.15 K, 3909.1 kPa	99.505 kg/m3	0.01323 mPa·s
373.15 K, 3909.3 kPa	99.518 kg/m3	0.01323 mPa·s
373.15 K, 4152.5 kPa	118.628 kg/m3	0.01431 mPa·s
373.15 K, 4152.6 kPa	118.636 kg/m3	0.01431 mPa·s
373.15 K, 4314.6 kPa	139.152 kg/m3 and 139.148 kg/m3	0.01561 mPa·s
373.15 K, 4400.6 kPa	157.919 kg/m3	0.01691 mPa·s
373.15 K, 4400.7 kPa	157.947 kg/m3	0.01692 mPa·s
373.15 K, 4432.9 kPa	169.072 kg/m3 and 169.051 kg/m3 and 169.087 kg/m3	0.01772 mPa·s and 0.01773 mPa·s
373.15 K, 4458.2 kPa	181.456 kg/m3 and 181.487 kg/m3	0.01876 mPa·s
373.15 K, 4477.3 kPa	194.68 kg/m3	0.02002 mPa·s
373.15 K, 4477.4 kPa	194.74 kg/m3	0.02003 mPa·s
373.15 K, 4491.9 kPa	207.584 kg/m3	0.02135 mPa·s
373.15 K, 4492 kPa	207.643 kg/m3	0.02135 mPa·s
373.15 K, 4502.7 kPa	218.095 kg/m3 and 218.113 kg/m3	0.02247 mPa·s
373.15 K, 4512.2 kPa	227.171 kg/m3 and 227.14 kg/m3	0.02347 mPa·s
373.15 K, 4515 kPa	229.692 kg/m3	0.02376 mPa·s
